Earlier results, collected in patent US20080287507A1, “Nicotine containing toiletry waters” (priority 2007, published 2008).

What was measured:
[1] = smoking a cigarette

## CN1CCCC1c1cccnc1 (centres unmarked) [Nicotine, 3-(1-methyl-2-pyrrolidinyl)-pyridine]
[1]
  time for nicotine to reach the brain after inhalation: around ten
other
  single dose that may kill an adult: Approximately 40 milligrams
